# Source: patent US20250134913A1, “ORAL DOSAGE FORMS OF TRβ AGONIST VK2809 FOR THE TREATMENT OF LIVER DISORDERS AND METHODS OF PREPARING THE SAME” (Viking Therapeutics, Inc., priority 2022, published 2025)
# Columns and labels:
# Type in all cases: physicochemical
# [1] = Equilibrium solubility of crystalline Compound 1 (supernatant concentration after ultracentrifugation); conditions: 37° C.
# From the text: Experimental values for solubility, listed in Table 2, were obtained by measuring supernatant concentrations after centrifugation at 386,000×g.
# [2] = Closed stability packaging study of spray dried dispersions by HPLC; conditions: Stored at Room Temp.
# Protocol: Due to the extensive degradation observed after 2 weeks at 40° C./75% RH open, a closed with desiccant condition stability study was initiated for Compound 1 SDDs. Samples were evaluated for stability at 2 weeks, 6 weeks, and 3 months when stored in 4 mL scintillation vials and sealed in 60 cc HDPE bottles with heat induction sealing and 0.5 g desiccant.
# Chemical stability of Compound 1 SDDs after 2 weeks under closed conditions was evaluated by HPLC using the method provided herein in Table 4. […] All SDDs containing cellulosic polymers show the same growth of an impurity after 2 weeks at 40/75 closed. Upon closer inspection, this impurity is present in the in-going API at a level that was below the threshold used for integration. […] Further evidence of unknown degradants that may form during manufacture and co-elute with known synthetic impurities was observed. Closed stability degradation data at two weeks is provided in Table 6, while closed stability degradation data at six weeks is provided in Table 7. Additionally, no changes in particle morphology and crystallinity for the SDDs after 6 weeks at 40° C./75% RH were observed.
# [3] = Stability study of tablet formulations; conditions: Stored at Room Temp.
# Protocol: Tablet formulations were subjected to a stability study. Tablets were packaged in heat sealed HDPE bottles with minimal headspace and stored in temperature-controlled stability chambers at 50° C., 40° C., and 25° C., and 5° C. Humidity in the chambers was either controlled or allowed to be at ambient humidity. The conditions are listed for each particular formulation in Table 11 below.
# [4] = Open stability of spray dried dispersions by HPLC; conditions: Stored at Room Temp.
# Protocol: The stability samples were tested using H-PLC using the method in Table 4.
# The stability samples were tested for assay and related substances. […] This is mainly due to an API process-related impurity.
# [5] = Gastric-to-intestinal buffer (G-IB) transfer non-sink dissolution test
# Protocol: The SDDs were evaluated in a non-sink dissolution test designed to monitor dissolution rate, as well as inhibition of crystallization, on transfer from simulated gastric to simulated intestinal media. For the gastric-to-intestinal buffer (G-IB) transfer dissolution test, pH 2 (“gastric”; “G”) media was added to each sample at a target dose concentration of 1000 μg Compound 1/mL. After 30 minutes of exposure to gastric media, concentrated simulated intestinal buffer was added to reach a final composition of 0.5% SIF in PBS, pH 6.5 at half the dose concentration (500 μg Compound 1/mL). This dose concentration was selected at twice the estimated amorphous solubility in an attempt to discriminate on dissolution rate and sustainment of supersaturation simultaneously. The concentration was monitored by UV fiber optic probes in situ (stir rate: 100 revolutions per minute) as well as being assessed by either microcentrifugation (15,800×g) or ultracentrifugation (300,000×g). The microcentrifuge separated the precipitate (undissolved drug) and total solubilized drug. Total solubilized drug consists of three solubilized species: freely solubilized drug (“free drug”), drug associated with bile salt micelles (“micelle bound drug”), and drug in small aggregate roughly 50-300 nm in size (“colloidal drug”). The ultracentrifuge further separates the colloidal drug and the supernatant contains only free drug and micelle bound drug. These three species have different activities in vivo and can be used to help differentiate formulations. Free drug is the smallest species and is the only species considered to partition directly into the cell membrane of the epithelium. Micelle bound drug can cross the unstirred mucous boundary layer and source free drug once a concentration gradient has been created by freely solubilized drug being absorbed. Finally, the drug-polymer colloids are a source of rapidly dissolving drug and may, in some cases, penetrate the unstirred mucous boundary layer (Stewart et al. Mol. Pharmaceutics, 2017, 12, 2437-2449)
# All SDD formulations containing enteric polymers reached the amorphous solubility in intestinal buffer within 10 minutes. […] The exact reason for this shift is currently unknown. It may be attributable to detector saturation, arising from the undissolved solids, or a specific interaction between the drug and polymer in solution.
# [6] = physchem
# Protocol: The amorphous solubility of amorphous Compound 1 was determined by slow addition of the API from an organic stock solution into the aqueous medium of interest. When the amorphous solubility was reached, a drug rich phase formed and was measured by detection by scattering of UV/Visible light and/or by dynamic light scattering (DLS).
# The solubility of amorphous Compound 1 was evaluated in PBS at pH 6.5 alone and with 0.5% simulated intestinal fluid (SIF). […] The onset of scattering in the SIF containing media occurred after 180-210 μg/mL Compound 1. […] This is consistent with the initial solubility testing where the crystalline solubility in PBS in the absence of bile salts is exceedingly low.
# [7] = Closed stability packaging study of PVP-VA SDDs by HPLC; conditions: Stored at Room Temp.
# Protocol: Chemical stability of PVP-VA-containing SDDs of Compound 1 under closed conditions was evaluated by HPLC using the method provided herein in Table 4.
structure (smiles),measurement,setting,value
Cc1cc(OC[P@@]2(=O)OCC[C@@H](c3cccc(Cl)c3)O2)cc(C)c1Cc1ccc(O)c(C(C)C)c1 [Compound 1],Ultracentrifuge Concentration,"[1]; 0.01N HCl, 90 min",<0.05 μg Compound 1/mL
same,Ultracentrifuge Concentration,"[1]; 0.01N HCl, 20 hours",<0.05 μg Compound 1/mL
same,Ultracentrifuge Concentration,"[1]; 0.5% Simulated intestinal fluid (SIF) in PBS, pH 6.5, 90 min",92 μg Compound 1/mL
same,Ultracentrifuge Concentration,"[1]; 0.5% Simulated intestinal fluid (SIF) in PBS, pH 6.5, 20 hours",87 μg Compound 1/mL
same,Ultracentrifuge Concentration,"[1]; PBS, pH 6.5, 90 min",<0.05 μg Compound 1/mL
same,Ultracentrifuge Concentration,"[1]; PBS, pH 6.5, 20 hours",0.6 μg Compound 1/mL
same,Compound 1 Relative abundance,[2]; 2 week analysis,97.07%
same,Impurities Relative abundance,[2]; 2 week analysis,2.95%
same,Compound 1 Relative abundance,[2]; 6 week analysis,97.70%
same,Impurities Relative abundance,[2]; 6 week analysis,2.33%
same,Compound 1 Relative abundance,[3]; 2 month analysis,97.22%
same,Impurities Relative abundance,[3]; 2 month analysis,2.78%
same,Compound 1 Relative abundance,[3]; 3 month analysis,97.45%
same,Impurities Relative abundance,[3]; 3 month analysis,2.55%
same,Compound 1 Relative abundance,[4],97.61%
same,Impurities Relative abundance,[4],2.47%
same,"Concentration, IB 10 min, micro","[5]; 0.5% SIF in PBS pH 6.5, 10 min, microcentrifuge, dose 500 μg/mL",39 μg Compound 1/mL
same,"Concentration, IB 10 min, ultra","[5]; 0.5% SIF in PBS pH 6.5, 10 min, ultracentrifuge, dose 500 μg/mL",49 μg Compound 1/mL
same,"Concentration, IB 90 min, micro","[5]; 0.5% SIF in PBS pH 6.5, 90 min, microcentrifuge, dose 500 μg/mL",88 μg Compound 1/mL
same,"Concentration, IB 90 min, ultra","[5]; 0.5% SIF in PBS pH 6.5, 90 min, ultracentrifuge, dose 500 μg/mL",88 μg Compound 1/mL
same,"Concentration, G 20 min, micro","[5]; gastric media pH 2, 20 min, microcentrifuge, dose 1000 μg/mL",0 μg Compound 1/mL
same,solubility,"[6]; 37 °C, pH 6.5, fassif, kinetic from dmso stock",180 to 210 µg/mL
same,Amorphous solubility behaviour,[6]; pH 6.5,precipitated as soon as the stock solution was introduced to the medium
same,Compound 1 Relative abundance,[7],97.54%
same,Impurities Relative abundance,[7],2.33%
